Data reported in patent US20060172943A1, “Restoring vascular function” (priority 2003, published 2006).
Ends that are not written are not given here.

Assays:
[1] = system: rat cardiac microvascular endothelial cells; assay: Three-dimensional migration assay through collagen gel; format: cell-based; conditions: cells cultured 3 h on substrate 10 μg/ml, 48 hours; for increase of peak migration distance in response to PDGF compared to absence of growth factors: PDGF 5 ng/ml; for increase of peak migration distance in response to VEGF compared to absence of growth factors: VEGF 5 ng/ml
Protocol: (§1) Rat cardiac microvascular endothelial cells were isolated from 3-month-old rats according to the method of Nishida et al. (1995). Cells were cultured on either collagen-coated or tenascin-C-coated (10 μg/ml) 8-well chamber slides (Nunc Nalge International, Illinois.) in minimal media (5% fetal bovine serum, 1% penicillin, 1% streptomycin in Dulbecco's modified Eagle's medium) for up to 48 hours and photographed daily. […] For migration analysis, cells were covered with 300 μl of collagen gel (Chemicon, California) after 3 h of culture on 10 μg/ml collagen or tenascin-C. The gel was allowed to polymerize for 1 hour at 37° C. and 200 μl of minimal media containing VEGF or PDGF (5 ng/ml) or no growth factor was added to the wells. Cells were incubated for up to 48 h, and analyzed for peak migration rates using an inverted microscope (Nikon, Japan): migratory distance of the 5 cells that had migrated furthest through the Z-axis of the gel was determined using the Z-plane focus knob of the microscope. Each experiment was repeated 4 times.
A three-dimensional assay system was developed in which cardiac endothelial cells were cultured on either collagen or tenascin-C for 3 h, and then migration through a collagen gel was analyzed in response to PDGF, VEGF, or the absence of angiogenic growth factors (FIGS. 8A, B). After 48 hours, peak migration distances through the Z-axis of the gel were determined (FIG. 8C).

[2] = system: rat cardiac microvascular endothelial cells; assay: In vitro cell adhesion and spreading analysis on coated substrates; format: cell-based; conditions: for cells that failed to attach to the substrate: within 10 min of plating
Protocol: as §1
The role of tenascin-C in the regulation of cardiac angiogenesis, endothelial cell phenotype and behavior was further analyzed by observing whether tenascin-C influenced cell adhesion. Cardiac endothelial cells were isolated from young hearts and cultured on either tenascin-C or collagen at a concentration of 10 μg/ml. […] Thus, it appeared that tenascin-C has a short-term anti-adhesive effect on cardiac endothelial cells. […] After 3 h of culture, 99% of cells were attached to the collagen substrate, while approximately 10% of cells on tenascin-C still fail to adhere in this time. Thus, tenascin-C can mediate endothelial cell attachment but, at least within the first few hours of endothelial cell binding to tenascin-C, this attachment is weak and cells maintain a rounded phenotype.
The time period and substrate concentration effects upon cell attachment were further examined by plating rat microvascular endothelial cells on various concentrations (1 μg/ml, 10 μg/ml and 100 μg/ml) of collagen and tenascin-C and observing the attachment of cells to these substrates. As shown in FIGS. 6A-C, within 3 hr, cells on collagen were well attached and beginning to spread into a monolayer. In contrast, cells plated on tenascin-C for 3 hr remained rounded, especially when higher concentrations of tenascin-C were used (FIGS. 6D-F).

[3] = system: tenascin-C mRNA expression in cultured rat cardiac endothelial cells; assay: PCR analysis of tenascin-C mRNA expression in cultured cardiac endothelial cells treated with PDGF; format: cell-based; conditions: data not shown
Protocol: Tenascin-C expression was induced by PDGF during in vitro studies in rat aortic smooth muscle cells. […] Control cells received no PDGF. Cardiac endothelial cells from young (4-month old) and old (24-month old) rat hearts were tested. The number of treated and non-treated cultures tested was two (n=2 per group). Tenascin-C expression was higher in PDGF-treated cells and in younger (4 month old) as opposed to older ([…]) cultures of rat cardiac endothelial cells.

[4] = system: tenascin-C expression in the heart; assay: Immunohistochemical analysis of heart sections after intramyocardial PDGF injection; format: in vivo, rat; conditions: rats, 24 h, immunohistochemistry, data not shown
Protocol: Cardiac injections of PDGF ligand were performed as described in Xaymardan et al., Senescent impairment in synergistic cytokine pathways that provide rapid cardioprotection in the rat heart. J Exp Med, 199(6): p. 797-804 (2004). Briefly, rats were anesthetized, an intercostal thoracotomy was performed and then the rats received intramyocardial injections of PDGF-AB (100 ng/50 μl PBS) at the anterior wall of the myocardium (two 25 μl injections, 2 mm apart) through a 28 gauge needle. The chest wall was closed, the lungs inflated and the rats were extubated. Twenty-four hours later, the rats were sacrificed and the hearts were harvested for paraffin embedding and sectioning, using standard techniques.
(§2) The following primary antibodies were used for immunostaining histological sections: anti-tenascin-C (Santa Cruz Biotechnology, California), anti-pIII (Mobitec, Germany), anti-β-galactosidase (Biogenesis, U.K.), anti-PDGFRα (Santa Cruz Biotechnology). For consistency, sections for all analyses were selected from the mid-papillary region of the ventricles. Primary antibodies were labeled with biotin and visualized with Texas Red- and FITC-conjugated avidin (Vector Labs, California).

[5] = molecular target: T1, tenascin-C in the cardiac vasculature (Mus musculus, UniProt Q80YX1); assay: Immunostaining of heart sections for phage coat protein pIII and tenascin-C; format: in vivo; conditions: rodent heart after phage injection
T1 construct: from tissue; host or cells: heart (cardiac vasculature) of phage-injected animals, paraffin sections
Description: For immunohistochemical analysis of phage binding, hearts were harvested after phage injection, and then prepared for paraffin embedding and sectioning using standard histochemical procedures.
as §2
To investigate whether tenascin is an in vivo receptor for ψR3Y32, expression of tenascin-C as well as its relationship to phage binding sites was analyzed in the rodent heart. […] Co-staining for tenascin-C and the nuclear marker 4,6-diamidino-2-phenylindole (DAPI) further confirmed that tenascin-C is expressed on the luminal surface of cardiac vessels, and therefore may act at sites of endothelial cell/EPC cell incorporation during vascular remodeling (FIG. 3D).

[6] = system: cardiac vasculature of young (3-month-old) and old (18-month-old) murine hearts; assay: In vivo phage binding in heart after tail vein injection, quantified by phage titering; conditions: individual tail vein injection; 3-month-old vs 18-month-old mice; titers of phage eluted from hearts
Protocol: To identify young-specific bone marrow-homing phage, a phage library encoding a cyclically constrained seven amino acid variable region (New England Biolabs, Massachusetts) was injected into young (3 month) and old (18-month) adult mice, using methods described in Cai, D., et al., Age-associated impairment in TNF-alpha cardioprotection from myocardial infarction. Am J Physiol Heart Circ Physiol, 2003. 285(2): p. H463-69. Phage clones were selected for sequencing from phage pools eluted from young rather than old bone marrow. To confirm that these clones preferentially bound to young bone marrow, the clones were injected individually into young and old mice and young bone marrow-specific clones were re-selected from the young mouse's bone marrow. Young bone marrow-homing phage were then analyzed for cardiac binding to identify phage epitopes that preferentially bound to young cardiac vasculature as well as young bone marrow. The number of bound phage recovered per mg of tissue was quantified by serial dilution titration. The age-associated differential cardiac binding capacity of a candidate phage clone, ψR3Y32 was confirmed using methods described in Cai et al. (2004).
Individual injection of ψR3Y32 confirmed 10-fold higher levels of ψR3Y32 binding in young compared to old murine hearts (FIG. 3A).

[7] = 3 hours of incubation, substrate 10 μg/ml
[8] = after 3 h of culture, substrate 10 μg/ml

T1 sequence (Q80YX1 23-2110): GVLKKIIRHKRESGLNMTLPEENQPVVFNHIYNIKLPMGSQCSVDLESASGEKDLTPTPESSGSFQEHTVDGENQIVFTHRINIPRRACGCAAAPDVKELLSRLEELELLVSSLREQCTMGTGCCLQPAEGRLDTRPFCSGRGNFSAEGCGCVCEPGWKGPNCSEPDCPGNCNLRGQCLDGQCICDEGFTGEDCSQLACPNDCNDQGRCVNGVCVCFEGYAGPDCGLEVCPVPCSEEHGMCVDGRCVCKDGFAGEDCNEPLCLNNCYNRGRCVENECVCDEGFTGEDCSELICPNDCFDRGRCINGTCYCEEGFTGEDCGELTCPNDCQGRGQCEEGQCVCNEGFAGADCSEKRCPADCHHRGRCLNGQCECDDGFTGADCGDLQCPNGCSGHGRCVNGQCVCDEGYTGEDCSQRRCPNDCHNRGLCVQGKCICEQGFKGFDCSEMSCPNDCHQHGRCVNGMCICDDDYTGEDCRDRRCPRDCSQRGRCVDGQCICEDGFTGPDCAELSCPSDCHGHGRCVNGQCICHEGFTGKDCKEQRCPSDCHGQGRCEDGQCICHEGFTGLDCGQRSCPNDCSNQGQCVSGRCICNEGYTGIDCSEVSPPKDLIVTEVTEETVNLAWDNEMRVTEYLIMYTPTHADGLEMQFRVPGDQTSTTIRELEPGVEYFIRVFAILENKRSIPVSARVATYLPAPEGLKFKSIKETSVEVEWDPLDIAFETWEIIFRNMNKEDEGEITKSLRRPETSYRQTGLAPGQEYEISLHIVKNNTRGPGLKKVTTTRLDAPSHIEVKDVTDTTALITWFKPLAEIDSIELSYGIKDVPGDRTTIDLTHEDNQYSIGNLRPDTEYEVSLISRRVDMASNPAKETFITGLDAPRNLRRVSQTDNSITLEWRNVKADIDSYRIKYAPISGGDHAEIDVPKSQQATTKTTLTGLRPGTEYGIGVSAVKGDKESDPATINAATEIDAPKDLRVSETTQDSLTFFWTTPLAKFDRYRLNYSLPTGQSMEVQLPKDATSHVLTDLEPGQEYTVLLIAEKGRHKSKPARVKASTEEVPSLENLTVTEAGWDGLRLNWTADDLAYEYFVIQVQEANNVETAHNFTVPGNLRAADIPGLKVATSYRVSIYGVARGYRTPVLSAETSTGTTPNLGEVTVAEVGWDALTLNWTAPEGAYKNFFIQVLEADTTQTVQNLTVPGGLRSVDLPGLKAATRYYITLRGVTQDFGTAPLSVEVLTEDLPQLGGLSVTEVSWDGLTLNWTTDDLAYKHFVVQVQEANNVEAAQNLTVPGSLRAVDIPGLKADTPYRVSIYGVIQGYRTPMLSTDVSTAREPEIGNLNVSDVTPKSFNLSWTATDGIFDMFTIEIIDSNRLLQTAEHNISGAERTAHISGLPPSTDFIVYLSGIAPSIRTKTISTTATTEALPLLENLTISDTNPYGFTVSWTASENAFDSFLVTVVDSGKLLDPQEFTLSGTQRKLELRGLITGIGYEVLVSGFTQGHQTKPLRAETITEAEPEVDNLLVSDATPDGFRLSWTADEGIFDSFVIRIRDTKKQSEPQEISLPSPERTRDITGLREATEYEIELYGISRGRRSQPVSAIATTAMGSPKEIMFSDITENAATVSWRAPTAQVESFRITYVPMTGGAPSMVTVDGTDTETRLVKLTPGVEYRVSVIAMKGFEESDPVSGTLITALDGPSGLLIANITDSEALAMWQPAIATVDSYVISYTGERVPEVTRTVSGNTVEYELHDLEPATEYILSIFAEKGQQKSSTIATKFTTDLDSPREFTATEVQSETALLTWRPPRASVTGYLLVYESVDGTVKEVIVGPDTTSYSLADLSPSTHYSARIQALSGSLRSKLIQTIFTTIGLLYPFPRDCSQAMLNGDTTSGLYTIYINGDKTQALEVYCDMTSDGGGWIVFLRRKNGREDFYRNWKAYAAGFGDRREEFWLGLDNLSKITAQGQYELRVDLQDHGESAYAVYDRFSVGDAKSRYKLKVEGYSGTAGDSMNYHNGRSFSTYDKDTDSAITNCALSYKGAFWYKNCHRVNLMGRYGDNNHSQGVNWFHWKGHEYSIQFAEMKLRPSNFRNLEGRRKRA

tenascin-C: hexameric extracellular matrix glycoprotein, used as coating substrate for cardiac endothelial cells
increase of peak migration distance in response to PDGF compared to absence of growth factors [1]: 64.3%
increase of peak migration distance in response to VEGF compared to absence of growth factors [1]: 91.6%
cell attachment and morphology [2, 7]: rounded and poorly attached
cell attachment and morphology ([2]; 24 hours of culture, substrate 10 μg/ml): well attached and spread and formed a typical endothelial monolayer
cell attachment and morphology ([2]; 24 hr, substrate 100 μg/ml): formed multi-layered cell clusters
cells that fail to adhere [2, 8]: approximately 10%
cells that failed to attach to the substrate ([2]; substrate 10 μg/ml): 86.9%

PDGF-AB: platelet derived growth factor AB heterodimer ligand
time of peak upregulation of tenascin-C mRNA ([3]; RT-PCR, cardiac endothelial cells cultured with exogenous PDGF ligand): 6 h
tenascin-C mRNA expression in cardiac endothelial cells after treatment ([3]; real-time PCR, cultured rat cardiac endothelial cells, n=2 per group): increased
tenascin-C expression in heart sections after treatment [4]: increases tenascin-C expression

collagen [reference compound]
increase of peak migration distance in response to PDGF compared to absence of growth factors [1]: 51.4%
increase of peak migration distance in response to VEGF compared to absence of growth factors [1]: 63.3%
cell attachment and morphology [2, 7]: attached well and were beginning to spread
cells attached to the substrate [2, 8]: 99%
cells that failed to attach to the substrate ([2]; substrate 10 μg/ml): 16.9%

ψR3Y32: phage clone from in vivo biopanning displaying a cyclically constrained peptide with core motif STISHN (SEQ ID NO:1), homologous to alpha-8 integrin (also: displayed on phage, cyclically constrained; listed as Homo sapiens)
binding of phage to vessels within the heart (pIII immunostaining) [5]: confirmed the binding of ψR3Y32 to vessels within the heart
levels of phage binding in young compared to old murine hearts [6]: 10 fold
